The molecules below were run on KPL-4 Cells (assay: Cell proliferation inhibition test (CellTiter-Glo, 72h)). Conditions: 72h incubation, Table 2 run.
Format: cell-based
Protocol: KPL-4 Cells in the logarithmic phase of growth were collected and re-suspended with fresh RPMI1640 complete cell culture medium, and adjusted to 2×10^4 cells/mL after cell counting. Cells were seeded into 96-well cell culture plates at 100 µL/well, and placed in a CO2 incubator (37° C., 5% CO2) overnight. In the next day, one of the cell culture plates were taken out, balanced to room temperature, and CellTiter-Glo reagent (Promega, USA), which was pre-balanced to room temperature and evenly mixed, was added into the plate at 100 μl. The plate was kept in dark for 30 min, and then luminescence value was read with a microplate reader (denoted as Go value). The other cell culture plates were taken out and added with different concentrations of test compounds or DMSO (final concentration 0.5%) in corresponding wells. After incubated for 72h in a CO2 incubator, the cell culture plates were balanced to room temperature and tested for cell viabilities using CellTiter-Glo reagent as described above (denoted as G3 value).
DXd was used as a positive reference compound with the following structure:
The cell proliferation rates were calculated using the following formula: Cell proliferation rate (%)=(mean of G3compound−mean of G0)/(mean of G3DMSO−mean of G0)×100.

Row | Structure (SMILES) | GI50 [nM]
1 | CC[C@@]1(O)C(=O)OCc2c1cc1n(c2=S)Cc2c-1nc1cc(F)c(C)c3c1c2[C@@H](NC(=O)C1CC(O)C1)CC3 (stereo partly shown) [Example 29] | 5.96
2 | CC[C@@]1(O)C(=O)OCc2c1cc1n(c2=S)Cc2c-1nc1cc(F)c(C)c3c1c2[C@@H](NC(=O)C1CC(O)C1)CC3 (stereo partly shown) [Example 30] | 11.3
3 | CC[C@@]1(O)C(=O)OCc2c1cc1n(c2=S)Cc2c-1nc1cc(F)c(C)c3c1c2[C@@H](NC(=O)C1CCC(O)CC1)CC3 (stereo partly shown) [Example 32] | 8.47
4 | CC[C@@]1(O)C(=O)OCc2c1cc1n(c2=S)Cc2c-1nc1cc(F)c(C)c3c1c2[C@@H](NC(=O)C1CCC(O)CC1)CC3 (stereo partly shown) [Example 33] | 6.34

Same assay, conditions: KPL4, 72 h, 72h incubation, Table 1 run (DXd: average of 2 measurements)

Row | Structure (SMILES) | GI50 [nM]
5 | CC[C@@]1(O)C(=O)OCc2c1cc1n(c2=O)Cc2c-1nc1cc(F)c(C)c3c1c2[C@@H](NC(=O)CO)CS3 [DXd, reference compound] | 45.4
6 | CC[C@@]1(O)C(=O)OCc2c1cc1n(c2=S)Cc2c-1nc1cc(F)c(C)cc1c2CN [Example 2] | 2.82
7 | CC[C@@]1(O)C(=O)OCc2c1cc1n(c2=S)Cc2c-1nc1cc(F)c(C)cc1c2CNC(=O)CO [Example 3] | 6.27
8 | CC[C@@]1(O)C(=O)OCc2c1cc1n(c2=S)Cc2c-1nc1cc(F)c(C)cc1c2CCCCO [Example 4] | 2.23
9 | CC[C@@]1(O)C(=O)OCc2c1cc1n(c2=S)Cc2c-1nc1ccc(N)c3c1c2CCC3 [Example 5] | 1.84

Same assay, conditions: KPL4, 72 h, 72h incubation, Table 2 run

Row | Structure (SMILES) | GI50 [nM]
10 | CC[C@@]1(O)C(=O)OCc2c1cc1n(c2=O)Cc2c-1nc1cc(F)c(C)c3c1c2[C@@H](NC(=O)CO)CS3 [DXd, reference compound] | 22.8
11 | CC[C@@]1(O)C(=O)OCc2c1cc1n(c2=S)Cc2cc3c(CCCCO)c(C)c(F)cc3nc2-1 [Example 6] | 3.45
12 | CC[C@@]1(O)C(=O)OCc2c1cc1n(c2=S)Cc2c-1nc1cc3c(cc1c2CNC(=O)CO)OCO3 [Example 8] | 12
13 | CC[C@@]1(O)C(=O)OCc2c1cc1n(c2=S)Cc2c-1nc1cc3c(cc1c2CNC(=O)CN)OCO3 [Example 9] | 12.2
14 | CC[C@@]1(O)C(=O)OCc2c1cc1n(c2=S)Cc2c-1nc1cc3c(cc1c2CCNC(C)C)OCO3 [Example 10] | 2.24
15 | CC[C@@]1(O)C(=O)OCc2c1cc1n(c2=S)Cc2c-1nc1ccccc1c2CCNC(C)C [Example 11] | 6.48
16 | CC[C@@]1(O)C(=O)OCc2c1cc1n(c2=S)Cc2c-1nc1cc3c(cc1c2C12CC(N)(C1)C2)OCO3 [Example 12] | 2.98
17 | CC[C@@]1(O)C(=O)OCc2c1cc1n(c2=S)Cc2cc3cc(N)c(F)cc3nc2-1 [Example 13] | 0.63
18 | CC[C@@]1(O)C(=O)OCc2c1cc1n(c2=S)Cc2c-1nc1cc3c(cc1c2CNC(=O)C(O)C1CC1)OCO3 (stereo partly shown) [Example 14] | 3.49
19 | CC[C@@]1(O)C(=O)OCc2c1cc1n(c2=S)Cc2c-1nc1cc3c(cc1c2CNC(=O)C(C)O)OCO3 (stereo partly shown) [Example 15] | 4.13
20 | CC[C@@]1(O)C(=O)OCc2c1cc1n(c2=S)Cc2c-1nc1cc3c(cc1c2CNC(=O)C1CC(O)C1)OCO3 (stereo partly shown) [Example 16] | 14.5
21 | CC[C@@]1(O)C(=O)OCc2c1cc1n(c2=S)Cc2c-1nc1cc3c(cc1c2CNC(=O)C[C@@H](C)O)OCO3 [Example 18] | 4.35
22 | CC[C@@]1(O)C(=O)OCc2c1cc1n(c2=S)Cc2c-1nc1cc3c(cc1c2CNC(=O)C[C@H](C)O)OCO3 [Example 19] | 4.27
23 | CC[C@@]1(O)C(=O)OCc2c1cc1n(c2=S)Cc2c-1nc1cc(F)c(C)cc1c2CNC(=O)C1CCC(O)CC1 (stereo partly shown) [Example 21] | 16.8
24 | CC[C@@]1(O)C(=O)OCc2c1cc1n(c2=S)Cc2c-1nc1cc(F)c(C)cc1c2CNC(=O)C(C)O (stereo partly shown) [Example 22] | 2.81
25 | CC[C@@]1(O)C(=O)OCc2c1cc1n(c2=S)Cc2c-1nc1cc(F)c(C)cc1c2CNC(=O)C(O)C1CC1 (stereo partly shown) [Example 23] | 1.73
26 | CC[C@@]1(O)C(=O)OCc2c1cc1n(c2=S)Cc2c-1nc1cc(F)c(C)cc1c2CNC(=O)C[C@H](C)O [Example 24] | 2.81
27 | CC[C@@]1(O)C(=O)OCc2c1cc1n(c2=S)Cc2c-1nc1cc(F)c(C)cc1c2CNC(=O)C[C@@H](C)O [Example 25] | 2.21
28 | CC[C@@]1(O)C(=O)OCc2c1cc1n(c2=S)Cc2c-1nc1cc(F)c(C)c3c1c2[C@@H](NC(=O)C[C@@H](C)O)CC3 [Example 26] | 3.24
29 | CC[C@@]1(O)C(=O)OCc2c1cc1n(c2=S)Cc2c-1nc1cc(F)c(C)c3c1c2[C@@H](NC(=O)C[C@H](C)O)CC3 [Example 27] | 2.93
30 | CC[C@@]1(O)C(=O)OCc2c1cc1n(c2=S)Cc2c-1nc1cc(F)c(C)c3c1c2[C@@H](NC(=O)C1CC(O)C1)CC3 (stereo partly shown) [Example 28] | 10.8
31 | CC[C@@]1(O)C(=O)OCc2c1cc1n(c2=S)Cc2c-1nc1cc(F)c(C)c3c1c2[C@@H](NC(=O)C1CCC(O)CC1)CC3 (stereo partly shown) [Example 31] | 8.62

— US20260028350A1, “TOXIN MOLECULE SUITABLE FOR ANTIBODY-DRUG CONJUGATE” (Minghui Pharmaceutical (Hangzhou) Limited, priority 2022, published 2026)
